Holding throughout (assay): relative viability (nuclei count vs DMSO), 5 days (fraction); higher = more cells survive
Compound in assay [1]: C1/C(=C\C2=CC=CS2)/C(=O)/C(=C/C3=CC=CS3)/C1 + Cc1nc(NC(=O)N2CCC[C@H]2C(N)=O)sc1-c1ccnc(C(C)(C)C(F)(F)F)c1 [Alpelisib] (partner 2 µM)
An outline of the steps:
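After 5 days of treatment, lung cancer cells in 1536-well plates were fixed and stained in a single step (final 0.05% Triton X-100, 1% formaldehyde, 1 ug/ml Hoechst) and their nuclei counted on 4× images. Treatment had been applied by pin tool the day after seeding as one drug alone or as a fixed anchor-drug dose with five library-drug doses (not always all listed) in √10 steps. Relative viability is the nuclei count of treated wells divided by that of vehicle wells, and values are medians of duplicate plates.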

Compound in assay [2]: C1/C(=C\C2=CC=CS2)/C(=O)/C(=C/C3=CC=CS3)/C1
An outline of the steps:
(§1)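 Lung cancer cell lines received five library-drug doses (not always all listed) spaced by √10, pinned on vehicle-anchored 1536-well plates after an overnight stay at 37 °C. Five days later, with no medium change, nuclei were Hoechst-stained, imaged at 4× and counted with MetaXpress. Viability is treated-well nuclei relative to vehicle-well nuclei, as a median across plates. Passing plates had control CV below 25% and at least one doubling.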

Compound in a further assay: C1=CC(=CC=C1C2=CC(=C(S2)NC(=O)N)C(=O)N)F [TPCA-1]
An outline of the steps: as §1

Compound in the next assay: C[C@]12O[C@H](C[C@]1(O)CO)n1c3ccccc3c3c4c(c5c6ccccc6n2c5c31)CNC4=O [Lestaurtinib]
An outline of the steps: as §1

The results in this text go back to the supplement of paper PMC10307832.

On to UMC-11, for which the relative viability in assay [1] (first compound 0.2 µM) is 1.04; in assay [1] (first compound 0.6325 µM), 1.1; in assay [1] (first compound 2 µM), 0.847; in assay [1] (first compound 20 µM) it was 0.952; in assay [2] (0.2 µM), 0.975; in assay [2] (0.6325 µM), 0.993. For the same cell line, the relative viability in assay [2] (2 µM) was 0.954; in assay [2] (6.325 µM) it was 0.711; in assay [2] (20 µM), 0.941; with TPCA-1 (0.04 µM), 1.03; with TPCA-1 (0.1265 µM) it was 0.87; with TPCA-1 (0.4 µM), 1.03. Moreover, the relative viability is 0.976 with TPCA-1 (1.265 µM); 0.374 in the assay with TPCA-1 (4 µM); 1.01 with Lestaurtinib (0.005 µM); 0.958 in the assay with Lestaurtinib (0.01581 µM); 0.615 in the assay with Lestaurtinib (0.05 µM); 0.353 with Lestaurtinib (0.1581 µM). For the same cell line, in the assay with Lestaurtinib (0.5 µM), the relative viability is 0.19.
